Measurements reported in the supplement of paper PMC5579334.
± gives the standard deviation of the averaged measurements.

Key:
HS-PSS [1] = assay: drug sensitivity score (DSS, CellTiter-Glo viability, 72 h) (DSS (dimensionless)); higher = more sensitive; extreme values may be limits of the assay
How it was run: (§1)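 MPNST cell lines and primary human Schwann cells (750–1000 cells per well) went into 384-well plates preprinted with each compound at five concentrations in 10-fold steps. Plates were incubated 72 h at 37 °C, 5% CO2. Viability was read as CellTiter-Glo ATP luminescence, scaled between vehicle and positive-control wells, with duplicates averaged where present. Percent inhibition is at the top concentration; drug sensitivity score and relative IC50 (censored at top concentration) come from four-parameter logistic fits.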

HS-Sch-2 [2] = assay: as above
How it was run: as §1

[3] = tested on: HSC1 (primary human Schwann cells); assay: as above
How it was run: as §1

[4] = tested on: HSC2 (primary human Schwann cells); assay: as above
How it was run: as §1

S1507-2 [5] = assay: as above
How it was run: as §1

S462 [6] = assay: as above
How it was run: as §1

ST8814 [7] = assay: as above
How it was run: as §1

STS26T [8] = assay: as above
How it was run: as §1

YST-1 [9] = assay: as above
How it was run: as §1

HS-PSS [10] = assay: drug sensitivity score (DSS, CellTox-Green cytotoxicity, 72 h) (DSS (dimensionless)); higher = more cytotoxic; extreme values may be limits of the assay
How it was run: (§2)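 MPNST cell lines and primary human Schwann cells were incubated 72 h at 37 °C in 384-well plates holding five 10-fold compound dilutions. CellTox-Green was added before seeding at a final 1:1000 dilution and reported fluorescence from DNA released by disrupted cells. Signals were scaled to vehicle and positive-control wells, and cultures failing plate quality control were dropped. Drug sensitivity score and relative IC50 come from four-parameter logistic fits, with IC50 censored at the top concentration.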

[11] = tested on: HSC1 (primary human Schwann cells); assay: as above
How it was run: as §2

[12] = tested on: HSC2 (primary human Schwann cells); assay: as above
How it was run: as §2

S1507-2 [13] = assay: as above
How it was run: as §2

ST8814 [14] = assay: as above
How it was run: as §2

STS26T [15] = assay: as above
How it was run: as §2

HS-PSS [16] = assay: % inhibition of CellTiter-Glo viability at highest tested concentration (72 h), relative to DMSO and benzethonium chloride controls; higher = more inhibition
How it was run: as §1

HS-Sch-2 [17] = assay: as above
How it was run: as §1

[18] = tested on: HSC1 (primary human Schwann cells); assay: as above
How it was run: as §1

[19] = tested on: HSC2 (primary human Schwann cells); assay: as above
How it was run: as §1

S1507-2 [20] = assay: as above
How it was run: as §1

S462 [21] = assay: as above
How it was run: as §1

ST8814 [22] = assay: as above
How it was run: as §1

STS26T [23] = assay: as above
How it was run: as §1

YST-1 [24] = assay: as above
How it was run: as §1

| SMILES | drug sensitivity score (HS-PSS [1]) | drug sensitivity score (HS-Sch-2 [2]) | drug sensitivity score [3] | drug sensitivity score [4] | drug sensitivity score (S1507-2 [5]) | drug sensitivity score (S462 [6]) | drug sensitivity score (ST8814 [7]) | drug sensitivity score (STS26T [8]) | drug sensitivity score (YST-1 [9]) | drug sensitivity score (HS-PSS [10]) | drug sensitivity score [11] | drug sensitivity score [12] | drug sensitivity score (S1507-2 [13]) | drug sensitivity score (ST8814 [14]) | drug sensitivity score (STS26T [15]) | % inhibition (HS-PSS [16]) | % inhibition (HS-Sch-2 [17]) | % inhibition [18] | % inhibition [19] | % inhibition (S1507-2 [20]) | % inhibition (S462 [21]) | % inhibition (ST8814 [22]) | % inhibition (STS26T [23]) | % inhibition (YST-1 [24]) |
| --- | --- | --- | --- | --- | --- | --- | --- | --- | --- | --- | --- | --- | --- | --- | --- | --- | --- | --- | --- | --- | --- | --- | --- | --- |
| CC(C)N(CCCNC(=O)Nc1ccc(C(C)(C)C)cc1)C[C@H]1O[C@@H](n2cc(Br)c3c(N)ncnc32)[C@H](O)[C@@H]1O [SGC0946] (max concentration tested 10000 nM) | 6.51 | 3.88 | 0.65 | 0.163 | 3.16 ± 1.4 | 0.582 ± 0.82 | 2.58 | 0 | 1.03 | 2.32 | 0 | 0 | 0.24 ± 0.046 | 3.21 | 0 | 79.5% | 67.2% | 23.1% | 16.3% | 42.7 ± 1.2% | 19.2 ± 8.9% | 52.9% | 4.04% | 29% |
| CC(C)(C)c1cnc(CSc2cnc(NC(=O)C3CCNCC3)s2)o1 [SNS-032] (max concentration tested 10000 nM) | 25.9 | 27.9 | 36.9 | 38 | 18.6 ± 1.5 | 36.8 ± 1.5 | 24.5 | 31.5 | 29.4 | 1.68 | 12.8 | 14.3 | 0 | 14.4 | 23.2 | 70.5% | 98.6% | 79.4% | 86.5% | 80.6 ± 3.5% | 104 ± 0.55% | 87.2% | 97.5% | 99.9% |
| CN1CCN(CCOc2cc(OC3CCOCC3)c3c(Nc4c(Cl)ccc5c4OCO5)ncnc3c2)CC1 [Saracatinib] (max concentration tested 10000 nM) | 6.08 | 3.07 | 7.06 | 3.21 | 7.04 ± 1.5 | 3.91 ± 0.7 | 5.63 | 5.09 | 0.09 | 1.13 | 0 | 6.91 | 9.49 ± 1.6 | 5.67 | 1.58 | 67.5% | 51.7% | 50.3% | 37.1% | 74.8 ± 2.1% | 36.2 ± 0.27% | 55.2% | 50.2% | 14.6% |
| CC[C@H](CO)Nc1nc(NCc2ccccc2)c2ncn(C(C)C)c2n1 [Seliciclib] (max concentration tested 10000 nM) | 2.39 | 0.52 | 0.597 | 1.23 | 0 | 1.26 ± 0.44 | 0 | 0.759 | 0 | 0.1 | 0 | 0 | 0 | 0 | 0 | 30.8% | 22.6% | 22.5% | 34.7% | -2.22 ± 4.7% | 32.2 ± 3.6% | 5.24% | 23.2% | 5.74% |
| Cn1cnc2c(F)c(Nc3ccc(Br)cc3Cl)c(C(=O)NOCCO)cc21 [Selumetinib] (max concentration tested 10000 nM) | 0.02 | 2.54 | 2.51 | 3.74 | 7.78 ± 3.3 | 5.86 ± 0.93 | 5.82 | 4.18 | 0 | 0 | 0 | 0 | 0.984 ± 0.39 | 1.43 | 0 | 12.8% | 35.6% | 41.3% | 44.1% | 50.8 ± 4.4% | 51.8 ± 5.1% | 51.4% | 33.6% | 5.28% |
| c1ccc2c(CCNc3ccc(Nc4ccncc4)cc3)c[nH]c2c1 [Serdemetan] (max concentration tested 10000 nM) | 6.09 | 4.57 | 6.36 | 7.15 | 8.56 ± 0.85 | 10.8 ± 0.46 | 12.2 | 5.45 | 11.6 | 3.27 | 0.111 | 0 | 4.77 ± 0.64 | 12.5 | 3.19 | 95.3% | 96.2% | 65.5% | 70.3% | 93.39 ± 0.52% | 100.5 ± 0.77% | 99.5% | 78.5% | 92.5% |
| CO[C@H]1C[C@@H]2CC[C@@H](C)[C@@](O)(O2)C(=O)C(=O)N2CCCC[C@H]2C(=O)O[C@H]([C@H](C)C[C@@H]2CC[C@@H](O)[C@H](OC)C2)CC(=O)[C@H](C)/C=C(\C)[C@@H](O)[C@@H](OC)C(=O)[C@H](C)C[C@H](C)/C=C/C=C/C=C/1C [Sirolimus] (max concentration tested 100 nM) | 4.11 | 3.47 | 0.673 | 1.62 | 0.128 ± 0.18 | 0 | 0.411 | 1.7 | 6.14 | 0 | 0 | 0 | 0.0997 ± 0.14 | 0 | 0 | 32.9% | 29.1% | 24.6% | 23.2% | 5.52 ± 9% | 1.96 ± 4.9% | 14.7% | 27.9% | 45.1% |
| C=CCN(/C=C1/C(=O)O[C@H](COC)[C@@]2(C)C1=C(O)C(=O)C1=C2[C@H](OC(C)=O)C[C@]2(C)C(=O)CC[C@@H]12)CC=C [Sonolisib] (max concentration tested 10000 nM) | 0 | 0 | 0 | 0.415 | 0.798 ± 0.34 | 0.831 ± 1.2 | 0.745 | 0.263 | 0 | 0 | 0 | 0 | 0 | 0 | 0 | 3.89% | -0.71% | 6.67% | 13.1% | 15.9 ± 0.9% | 17.1 ± 5.5% | 7.84% | 11.4% | 7.12% |
